Assay [1] deals with L. donovani axenic amastigotes. The assay can be described thus: alamarBlue assay, L. donovani axenic amastigotes. The class given is cell-based, Leishmania donovani. The procedure: (§1) For other parasites, L. donovani, strain MHOM/SD/62/1S-C12D, was grown as previously described. Plasmodium falciparum parasites of the 3D7 strain were cultured in RPMI 1640 medium supplemented with 37.5 mM HEPES, 10 mM D-glucose, 2 mM L-glutamine, 100 μM hypoxanthine, 25 μg/mL gentamicin, 4% (v/v) human serum and 0.25% (v/v) Albumax II, at a 2% haematocrit in an atmosphere of 1% 02, 3% CO2 and 96% N2. Staging and parasitemia of the in vitro culture were assessed by light microscopy of Giemsa-stained thin blood smears.
Leishmania amazonensis axenic amastigotes (100 μL, 2×10^6 cells/mL) were added to 96-multiwell plates containing 100 μL of amastigote culture medium with an appropriate compound dilution series. 0.1% DMSO (no drug) served as a positive control (100%), and 5 μM amphotericin B served as a negative growth control (0%). Only internal wells were used to minimize edge effects from evaporation. […] Similarly, the cytotoxicity of each compound was determined against RAW 264.7 cells and HepG2 cell lines, following 72 h incubation at 37° C. […]
MMV676477 was tested against several other parasites: the axenic amastigotes of Leishmania donovani and Leishmania tarentolae, blood-stage Plasmodium falciparum, and Trypanosoma brucei. The compound's activity was measured using alamarBlue®, Malaria SYBR green I fluorescence (MSF) and CellTiter-Glo® luminescent assays. […]
(Resazurin is reduced to fluorescent resorufin, in cell work by metabolically active cells.)

Assay [2] deals with blood-stage P. falciparum (3D7 strain). Description: Malaria SYBR green I fluorescence (MSF) assay. The class given is cell-based, Plasmodium falciparum. The protocol:
as §1
(§2) Compounds were tested against the blood-stage Trypanosoma brucei (48 hr endpoint) and intra-erythrocytic asexual stages Plasmodium falciparum (3D7) using CellTiter-Glo® luminescent and Malaria SYBR green I fluorescence (MSF) assays, respectively. Similar methodology will be used for future experiments.
(§3) MMV676477 was tested against several other parasites: the axenic amastigotes of Leishmania donovani and Leishmania tarentolae, blood-stage Plasmodium falciparum, and Trypanosoma brucei. The compound's activity was measured using alamarBlue®, Malaria SYBR green I fluorescence (MSF) and CellTiter-Glo® luminescent assays. […] In addition, MMV676477 has also been recently reported as having potent activity against Neospora caninum, Cryptosporidium parvum, Toxoplasma gondii, and Entamoeba histolytica.

The subject of assay [3] is intracellular L. amazonensis amastigotes. The assay can be described thus: Intracellular washout assay (LD50). The class given is cell-based, Leishmania amazonensis. The procedure: Intracellular LD50s were measured. Briefly, RAW 264.7 cells were seeded to 96-multiwell plates at a density of 2×10^5 cells/mL (200 μL) and starved overnight at 37° C. The cells were infected with metacyclic promastigotes at a Multiplicity of Infection (MOI) of 15 and incubated for another 24 h at 37° C. The plates containing infected RAW 264.7 cells/BM primary M #s were washed five times with serum-free DMEM. Serially diluted compounds were added, and plates were incubated at 37° C. for 72 hrs. Wells were washed five times with DMEM, and the RAW 264.7 cells were lysed with 100 μL of 2 mg/mL saponin in DMEM for 5 min at room temperature, and further lysis was stopped with 100% FBS. After centrifugation, 200 μL acidic promastigotes media was replaced, plates were incubated at 26° C. for 96 h. Fluorescence intensity (alamarBlue®) was measured as described above.
All routine in vitro quantification of antileishmanial drug potency is quantification of “cytostatic” potency. […] Therefore, the cytocidal action of MMV676477 was quantified by obtaining an LD50 at 72 h (a Lethal Dose that kills 50% of the bulk population of the parasites relative to untreated control) and compared it to the known cytocidal drug amphotericin. An intracellular washout assay was employed. […] The ratio of LD50:EC50 was calculated for MMV676477 and amphotericin. Lower ratios indicate that the LD50 is similar to the EC50 value, meaning that the estimated EC50 values represent killing of the parasites rather than simple growth inhibition.

Assay [4] relates to blood-stage Trypanosoma brucei. The assay can be described thus: CellTiter-Glo luminescent assay. The class given is cell-based. The protocol: The parasites were synchronized using sequential sorbitol lysis treatment, with experiments carried out at least one intra-erythrocytic cycle later. T. brucei single marker (SM) cells were maintained at log phase growth (<1.5×10^6 cells/mL) in HMI-19 media supplemented with 10% FBS (Gibco) and 2.5 μg/mL G418 (Life Technologies) at 37° C. and 5% CO2.
as §2, §3
For orientation: ATP-based viability assays read luminescence as a measure of living cells.

The subject of assay [5] is L. amazonensis promastigotes and amastigotes. The assay can be described thus: Microscopic analysis of cell division. Type of assay: cell-based, Leishmania amazonensis. The note with it: 48 h at EC50^72 h. The protocol: Promastigotes or amastigotes were treated with the indicated compound concentrations and allowed to adhere to poly-L-lysine coated plates. All cells were fixed with 4% paraformaldehyde and permeabilized/blocked with 0.01% Triton X-100 and 2% BSA in PBS. Promastigotes and amastigotes were incubated with mouse anti-gp46 or anti-p8, respectively at 1:50 or 1:1000 and rat anti-alpha-tubulin antibody at 1:1000. Samples were then probed with A568 anti-mouse and […] secondary antibodies (Molecular Probes). DNA was labeled with Hoescht. Samples were visualized on a Zeiss LSM 880 Inverted confocal Airyscan microscope at 63×; full Z-thicknesses through parasites were obtained. […] For microscopic analysis of mitotic arrest, at least 200 parasites were analyzed per condition per experiment after 48 hrs incubation at compounds' EC50, and the average plus standard error for three experiments was calculated. Representative images were selected from the maximal intensity projections and linearly processed in Adobe Photoshop CS6.
The molecular target of MMV676477 was investigated.

“Also recorded” adds a separate entry of the source.

In the case of `CCc1c(C)nc(-n2nc(C)cc2NC(=O)c2ccccc2SC)[nH]c1=O` [MMV676477, N-(1-(5-Ethyl-4-methyl-6-oxo-1,6-dihydropyrimidin-2-yl)-3-methyl-1H-pyrazol-5-yl)-2-(methylthio)benzamide], the “activity against L. donovani axenic amastigotes (in words)” value in assay [1] was “broad activity”. Besides, the “activity against Plasmodium falciparum (in words)” value in assay [2] is “nanomolar-range cytocidal potency; also recorded: broad activity; also recorded: nanomolar concentrations”. Further, in assay [3] (intracellular amastigotes), the LD50/EC50 ratio stood at 1.2. In addition, the “LD50 72 h” value in assay [3] (intracellular washout, 72 h) was 620 nM. In assay [4], the “activity against Trypanosoma brucei (in words)” value is “nanomolar-range cytocidal potency; also recorded: broad activity; also recorded: nanomolar concentrations”. In addition, the “percentage of L. amazonensis undergoing cell division” value in assay [5] is recorded as “significant two-fold increase”.

The values are drawn from patent US20240139190A1, “NOVEL ANTIPARASITIC COMPOUNDS AND METHODS” (The Board of Regents of The University of Texas System, priority 2019, published 2024).
